Assay results reported in US20020142347A1, “Biosensor” (BIOSENSOR ApS, priority 2000, published 2002).
Residue numbers refer to the chain shown, from its start.

Experiments:
FACI-24 = molecular target: T1, FACI-24 (Bos taurus, UniProt P07107, M25C); test: Fluorescence titration equilibrium binding analysis of CoA and acyl-CoA esters to FACI-24; parameters: species or system bovine; settings: FACI-24 (1.5 μM) titrated with increasing CoA and acyl-CoA concentration; fitted binding curves, emission 460 nm; read-out: Kd (nM) ± S.E.
T1 construct: made in house; host or cells: E. coli BL21(DE3)pLysS, pET3a vector
T1 sequence (P07107 2-87 M25C): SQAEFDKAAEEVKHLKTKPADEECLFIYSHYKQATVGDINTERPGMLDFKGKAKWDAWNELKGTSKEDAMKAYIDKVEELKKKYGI
Description: Development of a mathematical expression describing the relationship between acyl-CoA concentration and FACI-24 fluorescence was performed essentially as by Richieri et al 1992, J Biol Chem, 267:23495-23501. However, where ligand binding to ADIFAB induces both a fluorescence intensity increase around 505 nm and a fluorescence intensity decrease around 432 nm, ligand binding to FACI-24 only causes an increase in fluorescence around 460 nm.
Derivatisation of an expression for the fluorescence value as a function of the acyl-coA concentration was done using the Scatchard equation as a starting point: [formula]
which has been used to fit the titration data.
The curves represent the best fit analysis from two independent experiment calculated and normalized as described above. The FACI-24 binding affinity increases dramatically when the acyl-chain length increases from C8 to C10 and C12, a smaller but significant drop in Kd is seen by increasing chain length from C12 to C14. C14 to C18 saturated acyl-CoA esters and C18:1-CoA binds with similar and very high affinities to FACI-24. In >0.1 M salt, FACI-24 binds acyl-CoAs with higher affinity and similar specificity as native unmodified bovine ACBP. The Kd for binding of C12-CoA and C16-CoA to native ACBP is 40 and 2.0 nM, respectively (Fulcery et al Biochemical, 1997, 325:423-428; Færgeman et al 1996, Biochemistry, 35:14118-14126). FACI-24 is highly specific for binding long-chain acyl-CoA esters.
Titration of FACI with acyl-CoAs was done using a SPEX FLOUROLOG (Industries Inc, Edison N.J., USA) with excitation at 387 nm and emission at 460 nm, with both excitation and emission slits set to 4.5 nm. FACI (0.5-4.5 uM, as indicated) was dissolved in 1.5 ml binding buffer (10 mM HEPES 150 mM NaCl, 5 mM KCl, 1 mM Na2HPO4, pH 7.4) and titrated with a 10 μM acyl-CoA dissolved in binding buffer, with or without FACI added, as indicated. Fluorescence emission values (counts per second) measured without FACI added to the ligand stock solution were corrected for titrand dilution.
Up to four parameters were fitted in this way, these were B, representing the point of saturation on the X axis, H, representing the maximum fluorescence, i.e. the fluorescence at saturating concentration of acyl-CoA, L, the minimum fluorescence value, i.e. the fluorescence of FACI-24 alone in buffer, and K, the Kd value lor the acyl-CoA in question. Initial estimates for the fittable parameters were typically: B=1, H=maximum fluorescence value measured, L=minimum fluorescence value measured (at acyl-CoA-concentration=0), and K as judged from the raw data, typically from 0.0001 uM to 0.1 uM for acyl-CoA longer than C10:0-CoA.
For each acyl-CoA at least two titrations and fittings were performed. To consider two or more titrations of the same acyl-CoA together and obtain a Kd value using all these titrations, both axes of the raw data were standardised using the fitted values of B, H and L in this way:
X axis standard=(raw X axis values)/Bfitted
Y axis standard=[(raw Y axis values)−Lfitted]/[Hfitted−Lfitted]
In this way all Y axis values should come to lie between 0 and 1 and the X axis value should be 1 at the point of saturation (FACI-24:acyl-CoA 1:1). Such adjusted data were pooled and fitted using DataFit. Typically, both H and B fitted to values close to 1 and L fitted to values close to 0. K was typically fitted to values somewhere between the two values obtained for the raw data.
This could be overcome by removing B from the fittable parameters list and instead setting it to a constant value of 1 and fitting again. This was typically done for both the raw and the standardised data.

FACI53 = molecular target: T2, FACI53 (Bos taurus, UniProt P07107, A54C); test: Isothermal titration calorimetry of acyl-CoA binding to FACI53; parameters: species or system bovine
T2 construct: badan (6-bromoacetyl-2-dimethylaminonaphthalene) fluorophore on the introduced Cys-53; made in house; host or cells: E. coli BL21(DE3)pLysS, pET3a vector
T2 sequence (P07107 2-87 A54C): T1 sequence (P07107 2-87 M25C) with C24M, A53C
Description: Reference is made to FIG. 2. and FIG. 3. which depict the emission spectra of FACI24 and FACI53 titrated with increasing concentrations of CoA, C4-, C8-, C12-, C16- and C20-CoA esters. The addition of ligand and measurement of emission of FACI24 and FACI53 was performed as described in example 2. The increased addition of ligand to the mutated and modified proteins caused a proportional spectral change. The normal physiological binding profile was confirmed by direct binding studies using isoelectrical focusing as predicted in FIG. 4. […] The results clearly indicate that fluorescence emission at 470 nm may provide a measure for the concentration of free unbound long-chain(>C12)-acyl-CoA ester.
Quantitative determination of binding affinities (KD) were performed by isothermal titration micro calorimetry as previously described (Faergeman et. al., 1996; Biochemistry 35, 14118-14126). Qualitative evaluation of relative binding affinities were determined by isoelectrical focusing using the Pharmacia Fast Gel system according to the prescriptions given by the manufacture. […] The fluorescence emission was measured on a SPEX FLOUROLOG (Industries Inc, Edison N.J., USA) with excitation at 400 nm and emission scan from 400 nm to 550 nm. […]

Kd (FACI-24): 0.65 ± 0.26 nM
Binding to FACI53 by isothermal titration calorimetry (FACI53): binding was confirmed
SMILES: CCCCCCCCCCCCCCCC(=O)SCCNC(=O)CCNC(=O)[C@H](O)C(C)(C)COP(=O)(O)OP(=O)(O)OC[C@H]1O[C@@H](n2cnc3c(N)ncnc32)[C@H](O)[C@@H]1OP(=O)(O)O [C16:0-CoA, palmitoyl-CoA]
